# Measurements published in patent publication US20210261594A1, “USE OF AVERMECTIN DERIVATIVE FOR INCREASING BIOAVAILABILITY AND EFFICACY OF MACROCYLIC LACTONES” (INSTITUT NATIONAL DE RECHERCHE POUR L'AGRICULTURE, …, priority 2011, published 2021).
# Like-named read-outs stand apart in the source and are kept apart here. *1 amine or outer side, *2 acyl side, *3 side chain or, on linkers, in order; H or OH if unused. Where a SMILES comes first, the peptide text is derived from it. Bridges are numbered along the chain shown (N, C = ends). Roman numbers before positions name the chains, in order. [ ]: non-standard residue; d: D form. Actinocin(9to1) = Cc1c2oc3c(C)ccc(C(=O)[*:1])c3nc-2c(C(=O)[*:2])c(N)c1=O; NMeV = CN[C@H](C(=O)O)C(C)C; Sar = CNCC(=O)O
# Tests used:
# [1] = target: T1, rat GABA(A) receptor (α1, β2 and γ2 subunits) (Rattus norvegicus, UniProt P18508+P62813+P63138); assay: GABA receptor affinity test, two-electrode voltage clamp in Xenopus oocytes; type: cell-based; settings: for EC50: co-application with 2 μM GABA (EC10), Xenopus oocytes, read-out: EC50: concentration needed to induce half of the maximal potentiation of GABA effect; for agonist strength at GABA receptors, in words: compared to ivermectin
# T1 construct: expressed in transfected cells; host or cells: Xenopus laevis oocytes injected with RNA
# Method: The ability of ivermectin or moxidectin or ivermectin aglycone or ivermectin monosaccharide to interact with GABA receptors is assayed by electrophysiology measurements. Xenopus laevis oocytes are injected with 46 nl of RNA solution, with RNA coding for α1, β2 and γ2 subunits of the GABA channel at a ratio of 10:10:50 nM. The injected oocytes are incubated in modified Barth's solution [90 mM NaCl, 3 mM KCl, 0.82 mM MgSO4, 0.41 mM CaCl2, 0.34 mM Ca(NO3)2, 100 U/ml penicillin, 100 μg/ml streptomycin and 100 μg/ml kanamycin, 5 mM HEPES pH 7.6] at 18° C. for approximately 36 h before the measurements to ensure the expression of a functional receptor.
# Electrophysiological experiments are performed by the two-electrode voltage-clamp method. Measurements were done in ND96 medium containing 96 mM NaCl, 2 mM KCl, 1 mM […], 1.8 mM CaCl2 and 5 mM HEPES, pH 7.5, at a holding potential of −80 mV. The control current is evoked by the application of 2 μM GABA and the normalized relative potentiation of 2 μM GABA-evoked currents by increasing concentration of ivermectin, moxidectin, ivermectin aglycone, or ivermectin monosaccharide is determined as:
# [(IMLs+2 μM GABA/I2 μM GABA alone)/(I(MLs+2 μM GABA)Max/I2 μM GABA alone)]×100%
# where I2 μM GABA is the control current evoked by 2 μM GABA, IMLs+2 μM GABA is the current evoked by each drug concentration in co-applications with 2 μM GABA, and I(MLs+2 μM GABA)Max is the maximal current evoked by co-applications of drugs and 2 μM GABA. A washout period of 4 min between each GABA application is introduced, allowing receptors to recover from desensitization. Three different batches of oocytes are used to collect data for each analysis. The perfusion system is cleaned between two experiments by washing with 10% DMSO after application of MLs derivatives to avoid contamination.
# [2] = test system: vinblastine-resistant CEM/VBL cells; assay: Reversal of vinblastine resistance in CEM/VBL cells, MTT test; type: cell-based, Human; settings: 1 μM vinblastine
# Excerpt: (§1) Multidrug resistant tumor cells used in the present invention were Human lymphoma parental CEM and vinblastine-resistant CEM/VLB (Zordan-Nudpo et al., 1993) and parental […] and multidrug resistant cells DC-3F/ADX selected from spontaneously transformed DC-3F Chinese hamster lung fibroblasts on the basis of their resistance to actinomycin D (Biedler and Riehm, 1970). Both types of resistant cells overexpressed Pgp.
# (§2) CEM/VLB cells and DC-3F/ADX cells described in aforementioned part 1.3 were plated into 96 well plates and allowed to grow for 24 h. They were then incubated 4 days with vinblastine (concentration range 0-1 μM) with or without IVM at 2.5 μM or ivermectin aglycone (IVM-Agly) at 2.5 and at 5 μM (FIG. 7); or 2 days with actinomycin D with actinomycin (concentration range 0.01-10 μM) with or without ivermectin (IVM) or ivermectin aglycone (IVM-Agly) at 5 μM (FIG. 8). Cytotoxicity was determined using the MTT test. IC50 values were graphically determined and they represent the concentration needed for half cell survival. Fold reversal of multidrug resistance called reversion factors were the ratio of IC50 for toxic drug alone/IC50 for toxic drug in the presence of IVM-Agly.
# [3] = test system: Human lymphoma parental CEM cells; assay: Vinblastine cytotoxicity in parental CEM cells, MTT test; type: cell-based; settings: at concentrations below 0.001 μM
# Excerpt: as §1, §2
# [4] = test system: Caenorhabditis elegans resistant to ivermectin (IVR10); assay: Ivermectin resistance gravid assay in Caenorhabditis elegans IVR10; type: in vivo; settings: for RF: C. elegans IVR10, IC50 IVM alone / IC50 IVM with reversal agent; for effect of the agent alone on the development of C. elegans: verapamil at 8 μM, IVM-Agly at 10 ng/ml
# Method: A gravid assay method, based on the development of eggs to gravid adults over a 96 hr incubation period, was used to determine the resistance with respect to ivermectin (IVM) in C. elegans. The eggs were collected through rinsing the C. elegans worms resistant to IVM (IVR10). Sixty eggs were incubated/well, in standard conditions for four days (96 hours) in order reach adulthood (gravid) in the presence of drugs as followed: ivermectin aglycone (IVM-Agly) alone at 10 ng/ml (11.4 nM); verapamil (VRP) alone at 8 μM; IVM alone: […]; IVM+VRP 8 μM: 0, 1, 2, 4, 6, 8, 10, 20 ng/ml IVM; IVM+IVM-Agly 10 ng/ml: 0, 1, 2, 4, 6, 8, 10, 20 ng/ml ([…]) IVM. Assays were performed in triplicates per condition treatment and the experiment was performed 3 times.
# murine Pgp (mdr1a) = target: T2, murine Pgp (mdr1a) (Mus musculus, UniProt P21447); assay: Rhodamine 123 transport test in LLC-PK1-mdr1a cells overexpressing murine Pgp; type: cell-based; settings: LLCPK1-mdr1a cells; for Cmax: concentration to obtain maximum inhibitory effect / Emax: maximum effect compared to maximum effect obtained with 5 μM of valspodar: rhodamine 123
# T2 construct: expressed in transfected cells; host or cells: LLC-PK1 pig kidney epithelial cells (LLC-PK1-mdr1a), available in the INRA laboratory
# Method: (§3) The cells used were LLC-PK1, pig kidney epithelial cell lines, and LLC-PK1-mdr1a which are recombinant LLC-PK1 cells overexpressing murine abcb1a gene. All cell lines are available in INRA laboratory. The transfected cell line LLC-PK1-HcPgpA, which overexpress nematode Haemonchus contortus PgpA, was developed by R. Prichard (McGill University). Cells were cultured in medium 199 supplemented with penicillin (100 units/ml), streptomycin ([…]), 10% of foetal calf serum and geneticin G418 (400 mg/1) as selecting compound for the LLC-PKI-mdr1a and LLC-PK1-HcPgpA cells. All compounds and medium are from Invitrogen, Cergy Pontoise, France. Cells were seeded on 24-well plates (Sarstedt, Orsay, France) at 2×10^5 cells/well in G418-free medium until confluence for transport activity and on 96-well plates for viability assay.
# (§4) Cells were cultured with rhodamine 123 (10 μM, purchased from Sigma) with or without valspodar (VSP, […]). Compounds of interest were dissolved in DMSO and diluted in the medium (final DMSO concentration=0.1%) in a concentration range of 0.1-50 μM. After the 2-h incubation period, the cells were lysed and lysates were stored at −20° C. until analysis. To study the Pgp transport activity, the intracellular accumulation of fluorescent Rho 123 was determined by reading fluorescence in the cell lysates with a spectrofluorimeter (PerkinElmer LS50B, max excitation=507 nm; max emission=529 nm). Protein concentration was determined in lysates with BCA kit using bovine serum albumin as protein standard (Thermo scientific) Results were expressed as fluorescence arbitrary units after normalization to cellular protein content per well.
# [5] = target: nematode Haemonchus contortus PgpA (HcPgpA) (Haemonchus contortus, UniProt O61301); assay: Rhodamine 123 transport test in LLC-PK1-HcPgpA cells overexpressing nematode Pgp; type: cell-based; settings: for EC50: LLC-PK1-HcPgpA cells, read-out: EC50, concentration of half inhibitory effect, Nematode PgpA
# Method: as §3, §4
# [6] = test system: multidrug resistant cells DC-3F/ADX; assay: Reversal of actinomycin D resistance in DC-3F/ADX cells, MTT test; type: cell-based, Chinese hamster; settings: for RF (IC50 for toxic drug alone/IC50 for toxic drug in the presence of compound): ActD; for RF (IC50 for toxic drug alone/IC50 for toxic drug in the presence of compound) / toxicity of actinomycin D when combined with the compound: compound at 5 μM
# Excerpt: as §1, §2
# Mdr1ab−/− mice = assay: In vivo toxicity test in Pgp-deficient mice; settings: mouse, sc
# Method: Wild-type and the Pgp knock-out mdr1ab^−/− mice with a FVB genetic background were obtained from Taconic (NY, USA). In rodents, there are two Pgps encoded by abc1a and abc1b genes and mdr1ab^−/− mice were deficient for the two gene products. Mice were housed at INRA's transgenic rodent facility at 22±2° C. under 12-hour light/dark cycles. Animals sampling was designed to reduce the influence of interfering parameters such as litter specificity (seven to nine different litters for a ten animals group). Mice received a standard chow diet recommended for the breeding and rearing of rodents (Harlan Teklad TRM Rat/Mouse Diet; Harlan Teklad, Gannat, France). Water and food were available ad libitum. In vivo studies were conducted in mice under European laws on the protection of animals and protocols are performed under procedure and principal for good clinical practice.
# Toxicity of ivermectin and ivermectin aglycone is measured in Pgp-deficient mice. Mdr1ab^−/− mice are injected subcutaneously with increasing doses of ivermectin or ivermectin aglycone formulated in propylene glycol/[…] (60:40, v/v). Higher injected doses are 1.5 mg/kg (1.7 μmol/kg) for ivermectin and 16 mg/kg (27 μmol/kg) for ivermectin aglycone, respectively. Toxicity is evaluated during 24 h. […]
# [7] = Table 2, read-out: EC50, concentration of half inhibitory effect, Murine Pgp
# T1 sequence (P62813 28-455): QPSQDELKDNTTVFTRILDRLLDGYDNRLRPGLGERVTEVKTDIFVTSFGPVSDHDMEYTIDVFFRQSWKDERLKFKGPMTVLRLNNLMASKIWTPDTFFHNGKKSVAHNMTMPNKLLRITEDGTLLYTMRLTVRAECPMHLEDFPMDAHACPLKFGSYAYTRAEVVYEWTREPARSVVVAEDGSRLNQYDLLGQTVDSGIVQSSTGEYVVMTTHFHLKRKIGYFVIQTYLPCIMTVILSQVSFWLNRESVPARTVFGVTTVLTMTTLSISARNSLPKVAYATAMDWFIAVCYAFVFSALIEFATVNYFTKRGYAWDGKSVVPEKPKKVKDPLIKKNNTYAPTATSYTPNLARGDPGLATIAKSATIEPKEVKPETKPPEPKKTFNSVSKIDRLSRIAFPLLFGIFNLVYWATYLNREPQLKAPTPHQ
# T1 sequence (P63138 25-474 limits assumed): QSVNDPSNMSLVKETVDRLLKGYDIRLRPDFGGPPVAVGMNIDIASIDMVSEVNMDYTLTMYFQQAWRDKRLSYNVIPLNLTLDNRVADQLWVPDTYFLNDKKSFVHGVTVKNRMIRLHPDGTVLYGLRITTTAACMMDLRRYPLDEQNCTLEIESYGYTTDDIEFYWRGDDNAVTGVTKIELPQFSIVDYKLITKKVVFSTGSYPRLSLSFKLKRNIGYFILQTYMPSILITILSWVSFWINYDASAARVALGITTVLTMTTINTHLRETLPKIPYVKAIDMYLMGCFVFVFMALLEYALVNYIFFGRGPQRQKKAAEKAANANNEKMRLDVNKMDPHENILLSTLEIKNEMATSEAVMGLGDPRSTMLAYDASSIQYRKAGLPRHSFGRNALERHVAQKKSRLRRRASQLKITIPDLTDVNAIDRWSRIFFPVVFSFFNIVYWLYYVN
# T1 sequence (P18508 39-466): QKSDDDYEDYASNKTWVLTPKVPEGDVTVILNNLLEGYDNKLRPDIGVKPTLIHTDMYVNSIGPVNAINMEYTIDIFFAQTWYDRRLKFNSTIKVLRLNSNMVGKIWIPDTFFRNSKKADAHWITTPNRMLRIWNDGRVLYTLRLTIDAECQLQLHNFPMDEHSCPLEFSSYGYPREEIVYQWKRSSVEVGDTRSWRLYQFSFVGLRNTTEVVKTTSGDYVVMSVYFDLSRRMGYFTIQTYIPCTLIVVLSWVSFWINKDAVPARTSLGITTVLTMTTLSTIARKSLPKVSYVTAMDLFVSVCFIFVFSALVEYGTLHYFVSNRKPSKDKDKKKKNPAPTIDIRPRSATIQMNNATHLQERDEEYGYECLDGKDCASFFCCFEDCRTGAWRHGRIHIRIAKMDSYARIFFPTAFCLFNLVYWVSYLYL
# T2 sequence (P21447 whole entry): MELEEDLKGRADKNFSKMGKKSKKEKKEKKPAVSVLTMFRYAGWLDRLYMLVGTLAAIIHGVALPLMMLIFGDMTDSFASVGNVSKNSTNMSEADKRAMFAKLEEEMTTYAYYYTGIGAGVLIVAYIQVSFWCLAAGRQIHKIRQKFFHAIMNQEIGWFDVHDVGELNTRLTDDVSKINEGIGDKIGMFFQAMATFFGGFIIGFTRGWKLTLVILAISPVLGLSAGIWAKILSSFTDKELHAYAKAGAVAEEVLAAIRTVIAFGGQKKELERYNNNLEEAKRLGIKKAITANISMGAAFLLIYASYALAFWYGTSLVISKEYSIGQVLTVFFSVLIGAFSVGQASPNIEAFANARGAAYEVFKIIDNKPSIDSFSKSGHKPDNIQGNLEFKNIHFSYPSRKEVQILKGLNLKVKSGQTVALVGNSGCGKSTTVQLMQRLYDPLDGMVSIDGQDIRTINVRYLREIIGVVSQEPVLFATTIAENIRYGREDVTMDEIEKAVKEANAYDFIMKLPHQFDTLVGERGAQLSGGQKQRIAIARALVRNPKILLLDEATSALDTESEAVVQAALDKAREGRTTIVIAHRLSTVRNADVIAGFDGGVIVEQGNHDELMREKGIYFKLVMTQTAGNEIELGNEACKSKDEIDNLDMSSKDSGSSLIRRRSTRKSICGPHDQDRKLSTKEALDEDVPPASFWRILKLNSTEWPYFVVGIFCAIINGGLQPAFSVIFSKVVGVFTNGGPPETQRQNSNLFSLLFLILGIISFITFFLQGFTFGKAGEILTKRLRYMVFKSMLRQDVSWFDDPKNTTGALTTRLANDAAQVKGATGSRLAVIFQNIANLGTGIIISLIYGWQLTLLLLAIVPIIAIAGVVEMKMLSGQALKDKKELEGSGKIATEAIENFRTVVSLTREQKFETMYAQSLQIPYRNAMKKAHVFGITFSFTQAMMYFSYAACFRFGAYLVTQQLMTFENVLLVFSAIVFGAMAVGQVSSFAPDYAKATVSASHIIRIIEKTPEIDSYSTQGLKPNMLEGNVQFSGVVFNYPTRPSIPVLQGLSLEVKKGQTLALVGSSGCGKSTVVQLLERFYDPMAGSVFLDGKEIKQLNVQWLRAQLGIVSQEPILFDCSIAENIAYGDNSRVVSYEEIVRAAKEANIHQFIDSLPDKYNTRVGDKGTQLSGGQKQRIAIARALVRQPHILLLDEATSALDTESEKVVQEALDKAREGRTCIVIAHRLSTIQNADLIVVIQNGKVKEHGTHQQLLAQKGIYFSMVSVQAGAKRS
# Chain of nematode Haemonchus contortus PgpA (HcPgpA) (O61301 entry or part of it): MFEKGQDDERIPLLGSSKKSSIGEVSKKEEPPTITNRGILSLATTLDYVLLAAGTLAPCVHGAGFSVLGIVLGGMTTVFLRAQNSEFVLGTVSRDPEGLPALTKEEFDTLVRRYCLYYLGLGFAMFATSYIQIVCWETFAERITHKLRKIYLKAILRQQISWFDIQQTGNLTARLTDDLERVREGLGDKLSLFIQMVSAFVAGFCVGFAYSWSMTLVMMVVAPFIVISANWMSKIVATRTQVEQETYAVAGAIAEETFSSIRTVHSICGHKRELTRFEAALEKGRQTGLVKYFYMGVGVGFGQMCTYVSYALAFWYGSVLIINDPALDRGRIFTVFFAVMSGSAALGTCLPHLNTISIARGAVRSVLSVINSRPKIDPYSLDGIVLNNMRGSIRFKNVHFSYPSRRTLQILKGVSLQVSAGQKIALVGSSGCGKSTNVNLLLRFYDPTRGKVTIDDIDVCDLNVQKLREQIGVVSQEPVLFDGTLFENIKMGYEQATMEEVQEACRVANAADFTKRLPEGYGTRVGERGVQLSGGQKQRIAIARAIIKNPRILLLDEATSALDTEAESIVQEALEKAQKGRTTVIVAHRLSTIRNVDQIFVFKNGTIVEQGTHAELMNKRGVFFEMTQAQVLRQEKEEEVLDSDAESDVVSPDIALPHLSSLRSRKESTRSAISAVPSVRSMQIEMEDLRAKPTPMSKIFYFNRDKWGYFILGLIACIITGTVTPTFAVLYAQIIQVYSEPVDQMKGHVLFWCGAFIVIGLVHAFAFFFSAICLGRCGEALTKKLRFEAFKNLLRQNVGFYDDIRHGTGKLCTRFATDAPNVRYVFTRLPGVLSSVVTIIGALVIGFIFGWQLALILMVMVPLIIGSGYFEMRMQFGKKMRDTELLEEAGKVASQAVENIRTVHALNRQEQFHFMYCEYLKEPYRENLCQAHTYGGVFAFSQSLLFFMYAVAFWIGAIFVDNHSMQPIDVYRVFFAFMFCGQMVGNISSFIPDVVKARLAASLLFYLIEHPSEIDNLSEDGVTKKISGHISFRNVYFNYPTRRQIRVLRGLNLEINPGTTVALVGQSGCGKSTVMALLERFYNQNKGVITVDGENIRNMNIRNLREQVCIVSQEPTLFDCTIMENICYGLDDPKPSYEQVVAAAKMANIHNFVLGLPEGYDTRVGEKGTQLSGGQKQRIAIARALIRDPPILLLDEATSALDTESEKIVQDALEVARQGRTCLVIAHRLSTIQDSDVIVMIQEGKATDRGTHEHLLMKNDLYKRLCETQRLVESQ
compound,measurement,setting,value
CCC(C)C1OC2(CCC1C)CC1CC(CC=C(C)C(OC3CC(OC)C(O)C(C)O3)C(C)C=CC=C3COC4C(O)C(C)=CC(C(=O)O1)C34O)O2 (stereo not shown) [IVM Monosaccharide],EC50,[1],0.122 µM
same,"agonist strength at GABA receptors, in words",[1],weak agonist
"CC[C@]1(O)C[C@@H]2CN(CCc3c([nH]c4ccccc34)[C@@](C(=O)OC)(c3cc4c(cc3OC)N(C)[C@H]3[C@@](O)(C(=O)OC)[C@H](OC(C)=O)[C@]5(CC)C=CCN6CC[C@]43[C@@H]65)C2)C1 [VBL, vinblastine]",viability of CEM/VBL cells in vinblastine alone,[2],fully viable
same,sensitivity of parental cells to VBL,[3],highly sensitive
COc1ccc(CCN(C)CCCC(C#N)(c2ccc(OC)c(OC)c2)C(C)C)cc1OC (stereo not shown) [verapamil],RF,[4],2.1
same,effect of the agent alone on the development of C. elegans,[4],had no effects
ivermectin,Cmax: concentration to obtain maximum inhibitory effect,murine Pgp (mdr1a),5.0 µM
same,Emax: maximum effect compared to maximum effect obtained with 5 μM of valspodar,murine Pgp (mdr1a),88.0 % valspodar ®
same,EC50,murine Pgp (mdr1a); [7],0.5 µM
same,EC50,[5],0.6 µM
same,EC50,[1]; listed as IVM,0.0293 ± 0.0034 µM
same,EC50,[1],0.029 µM
same,RF (IC50 for toxic drug alone/IC50 for toxic drug in the presence of compound),[6]; DC-3F/ADX cells,45
same,toxicity of actinomycin D when combined with the compound,[6]; DC-3F/ADX cells,became toxic
same,IC50 of IVM alone,"[4]; C. elegans IVR10, egg to gravid adult, 96 h",6.8 ± 0.2 ng/mL
same,IC50,"[4]; C. elegans IVR10, egg to gravid adult, 96 h, read-out: IC50 of IVM alone",0.0078 ± 0.0002 µM
same,concentration blocking the development of C. elegans IVR10 eggs,[4]; IVM alone,~10 nM
"CCC(C)C1OC2(CCC1C)CC1CC(CC=C(C)C(O)C(C)C=CC=C3COC4C(O)C(C)=CC(C(=O)O1)C34O)O2 (stereo not shown) [Ivermectin aglycone, 22,23-dihydroavermectin B1 aglycone]",Cmax: concentration to obtain maximum inhibitory effect,murine Pgp (mdr1a),10.0 µM
same,Emax: maximum effect compared to maximum effect obtained with 5 μM of valspodar,murine Pgp (mdr1a),80.0 % valspodar ®
same,Cmax: concentration to obtain maximum inhibitory effect,murine Pgp (mdr1a); listed as ivermectin aglycone,about 10 μM
same,EC50,"murine Pgp (mdr1a); Table 1, read-out: EC50: effective concentration for inhibiting 50% of transport of rhodamine 123 by murine Pgp",1 µM
same,EC50,murine Pgp (mdr1a); [7],2.5 µM
same,EC50,[5],0.5 µM
same,inhibitory potency for parasite HcPgpA relative to mammalian Pgp,"[5]; ratio of EC50 murine Pgp / HcPgpA, 120 min",5 times
same,EC50,[1],0.215 µM
same,"agonist strength at GABA receptors, in words",[1],weak agonist
same,toxicity in words,Mdr1ab−/− mice,does not show any toxicity
same,RF (IC50 for toxic drug alone/IC50 for toxic drug in the presence of compound),[6]; DC-3F/ADX cells,62
same,toxicity of actinomycin D when combined with the compound,[6]; DC-3F/ADX cells,became toxic
same,RF,[4],1.5
same,effect of the agent alone on the development of C. elegans,[4],had no effects
"Cc1c2oc3c(C)ccc(C(=O)N[C@@H]4C(=O)N[C@H](C(C)C)C(=O)N5CCC[C@H]5C(=O)N(C)CC(=O)N(C)[C@@H](C(C)C)C(=O)O[C@@H]4C)c3nc-2c(C(=O)N[C@@H]2C(=O)N[C@H](C(C)C)C(=O)N3CCC[C@H]3C(=O)N(C)CC(=O)N(C)[C@@H](C(C)C)C(=O)O[C@@H]2C)c(N)c1=O [ActD, actinomycin D] (I: T[dV]P[Sar][NMeV] / II: T[dV]P[Sar][NMeV]; ester I:1-I:C, II:1-II:C; linker I:N-II:N via Actinocin(9to1))",DC-3F/ADX viability with actinomycin D alone,[6]; 1 μM actinomycin D,not altered
same,IC50,"[6]; DC-3F/ADX cells, MTT, read-out: IC50 of actinomycin D alone",5 µM
"CO/N=C1\C[C@]2(C[C@@H]3C[C@@H](C/C=C(\C)C[C@@H](C)/C=C/C=C4\CO[C@@H]5[C@H](O)C(C)=C[C@@H](C(=O)O3)[C@]45O)O2)O[C@H](/C(C)=C/C(C)C)[C@H]1C [MOX, moxidectin]",EC50,[1],0.0056 ± 0.0015 µM
